Measured values reported in PMC6025957, “Epidermal LysM receptor ensures robust symbiotic signalling in Lotus japonicus” (eLife, 2018).

Experiments:
[1] = target: T1, NFR1 kinase domain (Lotus japonicus, UniProt Q70KR7); assay: radioactive kinase assay, autoradiogram; format: biochemical; settings: labelled compound ([gamma-32P]ATP); 100 µM ATP, MnCl2, MgCl2, HEPES pH 7, room temperature; NFR5 kinase domain as acceptor
T1 construct: intracellular kinase domain, pET-32 Ek/LIC, E. coli Rosetta 2, tag cleaved with TEV
T1 sequence (Q70KR7 254-623 limits assumed): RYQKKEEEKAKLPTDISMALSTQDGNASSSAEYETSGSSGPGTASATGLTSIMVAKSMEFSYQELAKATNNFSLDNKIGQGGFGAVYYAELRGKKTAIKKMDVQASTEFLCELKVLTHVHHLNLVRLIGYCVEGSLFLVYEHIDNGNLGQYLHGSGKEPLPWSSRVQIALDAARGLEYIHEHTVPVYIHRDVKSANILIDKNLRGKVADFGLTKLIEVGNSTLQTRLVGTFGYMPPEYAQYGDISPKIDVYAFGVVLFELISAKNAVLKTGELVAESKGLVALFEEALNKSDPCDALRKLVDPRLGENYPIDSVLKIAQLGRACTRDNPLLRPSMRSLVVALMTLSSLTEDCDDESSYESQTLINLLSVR

[2] = target: T2, NFRe kinase domain (Lotus japonicus, UniProt A8WHB6); assay: radioactive kinase assay, autoradiogram; format: biochemical; settings: labelled compound ([gamma-32P]ATP); 100 µM ATP, MnCl2, MgCl2, HEPES pH 7, room temperature; autophosphorylation, myelin basic protein or NFR5 kinase domain as acceptor
T2 construct: gene nfr1c
T2 sequence (A8WHB6 entry or part of it): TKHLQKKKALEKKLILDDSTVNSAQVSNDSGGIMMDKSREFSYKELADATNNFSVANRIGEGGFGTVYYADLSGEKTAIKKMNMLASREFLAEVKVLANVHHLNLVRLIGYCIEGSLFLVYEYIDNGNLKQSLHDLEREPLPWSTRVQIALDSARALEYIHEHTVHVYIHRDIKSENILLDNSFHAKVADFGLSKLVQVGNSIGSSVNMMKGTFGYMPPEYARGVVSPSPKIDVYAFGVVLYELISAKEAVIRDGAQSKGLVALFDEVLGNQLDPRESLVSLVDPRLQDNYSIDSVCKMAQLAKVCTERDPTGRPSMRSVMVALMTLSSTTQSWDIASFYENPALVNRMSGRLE

[3] = target: T3, AtCERK1 ectodomain (Arabidopsis thaliana, UniProt A8R7E6); assay: biolayer interferometry, steady-state; format: binding; settings: labelled compound; biotinylated (GlcNAc)5 immobilised on streptavidin sensor, protein in solution; PBS pH 7.4, 500 mM NaCl, 0.01% Tween20
T3 construct: gene CERK1; ectodomain only (borders from reported crystal structure), gp67 signal peptide, C-terminal His6, Sf9 insect cells, glycosylated, ~35 kDa
T3 sequence (A8R7E6 24-232 limits assumed): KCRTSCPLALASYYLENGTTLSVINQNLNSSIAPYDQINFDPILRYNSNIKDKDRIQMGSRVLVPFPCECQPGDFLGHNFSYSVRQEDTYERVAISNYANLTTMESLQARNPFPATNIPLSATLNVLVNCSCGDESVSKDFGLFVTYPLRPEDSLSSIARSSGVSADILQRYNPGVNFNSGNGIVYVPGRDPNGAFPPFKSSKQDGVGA

Kd [3] | SMILES | radioactive kinase assay, autoradiogram [1] | radioactive kinase assay, autoradiogram [2]
– | Nc1ncnc2c1ncn2[C@@H]1O[C@H](COP(=O)(O)OP(=O)(O)OP(=O)(O)O)[C@@H](O)[C@H]1O [ATP] | NFR1 kinase serves as positive control for NFR5 kinase transphosphorylation | NFRe kinase transphosphorylated the myelin basic protein (MBP) substrate and autophosphorylated
59 µM | CC(=O)N[C@@H]1[C@@H](O)[C@H](O[C@@H]2O[C@H](CO)[C@@H](O[C@@H]3O[C@H](CO)[C@@H](O[C@@H]4O[C@H](CO)[C@@H](O[C@@H]5O[C@H](CO)[C@@H](O)[C@H](O)[C@H]5NC(C)=O)[C@H](O)[C@H]4NC(C)=O)[C@H](O)[C@H]3NC(C)=O)[C@H](O)[C@H]2NC(C)=O)[C@@H](CO)O[C@H]1O [CO5] | – | –
